The target of this assay is SMYD3 (Homo sapiens (Human), UniProt Q9H7B4). In words: SMYD3 biochemical assay (SMYD3 enzyme assay on MEKK2 protein substrate, 3H-SAM scintillation proximity assay). Conditions: read-out: SMYD3 Biochem IC50 (μM)*. Summed up: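 Detection used scintillation proximity beads to capture ³H-methylated GST-MEKK2 after quench with 100 uM final cold SAM. The reaction was started by SAM/MEKK2 addition after a 30 min RT compound–enzyme preincubation. Enzyme was tag-free full-length human SMYD3 from E. coli, in buffer of 25 mM Tris-Cl pH 8.0, 1 mM TCEP, 0.005% BSG, 0.005% Tween 20.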
Sequence of SMYD3 (Q9H7B4 whole entry): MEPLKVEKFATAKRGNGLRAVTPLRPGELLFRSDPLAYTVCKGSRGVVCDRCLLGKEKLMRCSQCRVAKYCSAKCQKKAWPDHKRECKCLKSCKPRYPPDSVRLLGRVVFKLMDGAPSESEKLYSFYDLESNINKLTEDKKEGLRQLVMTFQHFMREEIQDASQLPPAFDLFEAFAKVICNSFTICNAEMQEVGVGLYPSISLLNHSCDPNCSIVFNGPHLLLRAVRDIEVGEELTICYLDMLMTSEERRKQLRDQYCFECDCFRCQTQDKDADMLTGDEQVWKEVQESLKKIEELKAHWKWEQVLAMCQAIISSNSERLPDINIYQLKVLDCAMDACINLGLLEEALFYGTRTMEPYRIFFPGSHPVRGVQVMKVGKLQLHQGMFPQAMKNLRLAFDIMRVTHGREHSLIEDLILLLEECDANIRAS
In general, IC50 refers to the point on the concentration scale where inhibition reaches its midpoint. Regarding `CC(NC(=O)c1ccc2oc(=O)ccc2c1)C1CCN(C(=O)[C@H](C)N)CC1` (stereo partly drawn) [compound 95, N-(1-(1-(L-alanyl)piperidin-4-yl)ethyl)-2-oxo-2H-chromene-6-carboxamide], the IC50 was found to be 150 µM.

As for `CC(NC(=O)c1ccc2c(c1)CCC(=O)N2)C1CCN(C(=O)[C@H](C)N)CC1` (stereo partly drawn) [compound 96, N-(1-(1-(L-alanyl)piperidin-4-yl)ethyl)-2-oxo-1,2,3,4-tetrahydroquinoline-6-carboxamide], the IC50 is 193 µM. Regarding `CC(NC(=O)c1ccc2cc(N)ccc2c1)C1CCN(C(=O)[C@H](C)N)CC1` (stereo partly drawn) [compound 97, N-(1-(1-(L-alanyl)piperidin-4-yl)ethyl)-6-amino-2-naphthamide], the half-maximal inhibitory concentration (IC50) came out at 146 µM. For `COc1cc(C(=O)NC(C)C2CCN(C(=O)[C@H](C)N)CC2)cc2c1OCC(=O)N2` (stereo partly drawn) [compound 98, N-(1-(1-(L-alanyl)piperidin-4-yl)ethyl)-8-methoxy-3-oxo-3,4-dihydro-2H-benzo[b][1,4]oxazine-6-carboxamide] the value was 151 µM. On to `CC(NC(=O)c1ccc2ncc(O)nc2c1)C1CCN(C(=O)[C@H](C)N)CC1` (stereo partly drawn) [compound 99, N-(1-(1-(L-alanyl)piperidin-4-yl)ethyl)-3-hydroxyquinoxaline-6-carboxamide], for which the concentration for half-maximal inhibition (IC50) came to 35.7 µM. For `O=C1Cc2cc(C(=O)NC[C@H]3CCNC3)ccc2N1` [compound 101, (S)-2-oxo-N-(pyrrolidin-3-ylmethyl)indoline-5-carboxamide] the value was 25.4 µM; for `N[C@@H](Cc1ccc(O)cc1)C(=O)N1CCC(CNC(=O)c2ccc3c(c2)CC(=O)N3)CC1` [compound 102, N-((1-(L-tyrosyl)piperidin-4-yl)methyl)-2-oxoindoline-5-carboxamide], 1.86 µM. Take `N[C@@H](Cc1c[nH]c2ccccc12)C(=O)N1CCC(CNC(=O)c2ccc3c(c2)CC(=O)N3)CC1` [compound 103, N-((1-(L-tryptophyl)piperidin-4-yl)methyl)-2-oxoindoline-5-carboxamide]: the IC50 turned out to be 2.74 µM. On to `CCOC(=O)C(NC(=O)c1ccc2c(c1)CC(=O)N2)C1CCN(C(=O)[C@H](C)N)CC1` (stereo partly drawn) [compound 104, ethyl 2-(1-(L-alanyl)piperidin-4-yl)-2-(2-oxoindoline-5-carboxamido)acetate], for which the IC50 came out at 1.51 µM. Regarding `O=C1Cc2cc(C(=O)NCC3(O)CCNCC3)ccc2N1` [compound 105, N-((4-hydroxypiperidin-4-yl)methyl)-2-oxoindoline-5-carboxamide], the 50% inhibitory concentration (IC50) is 40.4 µM. As to `NCCCCNC(=O)c1ccc2c(c1)CC(=O)N2` [compound 106, N-(4-aminobutyl)-2-oxoindoline-5-carboxamide], the IC50 came to 13.4 µM. In the case of `C[C@H](N)C(=O)NCCCCNC(=O)c1ccc2c(c1)CC(=O)N2` [compound 107, (S)-N-(4-(2-aminopropanamido)butyl)-2-oxoindoline-5-carboxamide] it was 14 µM; in that of `CCOC(=O)CCCC(=O)N[C@H]1CC[C@H](N)CC1` [compound 108, ethyl 5-(((1r,4r)-4-aminocyclohexyl)amino)-5-oxopentanoate], 92.2 µM. In the case of `CC(CN1CCCC1)C(=O)NC(c1ccccc1)C1CCNCC1` (centres unmarked) [compound 109, 2-methyl-N-(phenyl(piperidin-4-yl)methyl)-3-(pyrrolidin-1-yl)propanamide] it was 79 µM.

As for `Cc1cc2[nH]c(C(=O)NC(c3ccccc3)C3CCNCC3)cc2o1` (centres unmarked) [compound 110, 2-methyl-N-(phenyl(piperidin-4-yl)methyl)-4H-furo[3,2-b]pyrrole-5-carboxamide], the IC50 was 82.8 µM. In the case of `CCC1(C(=O)N[C@H]2CC[C@H](N)CC2)CCCN1` (some centres unmarked) [compound 111, N-((1r,4r)-4-aminocyclohexyl)-2-ethylpyrrolidine-2-carboxamide] it was 150 µM; in that of `C[C@H](N)C(=O)N1CCC(O)(CNC(=O)c2ccc3c(c2)CC(=O)N3)CC1` [compound 112, N-((1-(L-alanyl)-4-hydroxypiperidin-4-yl)methyl)-2-oxoindoline-5-carboxamide], 3.04 µM.

The record behind these values is patent publication US10266526B2, “Substituted 1,2,3-triazoles as SMYD inhibitors for treating cancer” (EPIZYME, INC., priority 2014, dated 2019).
